Source: patent US20020061888A1, “Combination therapy for the prophylaxis and treatment of hyperlipidemic conditions and disorders” (priority 2000, published 2002)
“And” between values parts separate entries of the source, which are not always exact repeats. Equal entries are not always repeated.

Tested on: Male beagle dogs
Test: Serum total cholesterol in beagle dogs (serum lipid measurements)
Assay type: in vivo
Conditions: for SERUM TOTAL CHOLESTEROL / TOTAL SERUM CHOLESTEROL: n = 6; for decrease in serum total cholesterol concentration: compared to vehicle; for decrease in serum total cholesterol: after four weeks, vs pretreatment
Protocol: Male beagle dogs (9-10 kg) obtained from Marshall farms were fed a normal chow diet once a day for a two hour interval and given water ad libitum. Prior to initiating treatment, the dogs were weighed and blood samples were drawn from the cephalic vein of each dog following an overnight fast to evaluate pretreatment serum total cholesterol levels at the start of the study. […] All doses were administered in gelatin capsules per os to each dog between 9:00-9:30 a.m. prior to feeding. All animals were fed between 9:30-10:00 a.m. and were allowed two hours to eat, at which time any remaining food was removed. […] Animals were dosed daily for three weeks and blood samples were taken at the end of each week after an overnight fast for comparison with pretreatment serum total cholesterol levels. Three consecutive 24 hour fecal samples were collected for each group during the last 72 hours of each week and used to measure the concentration of fecal biles acids excreted during that time period.
Blood was collected from the cephalic vein of each dog into serum separator tubes. The blood was centrifuged at 900×g for 20 minutes at room temperature and the serum decanted. All analyses were performed on a Cobas Mira Clinical Analyzer System (Roche Diagnostic Systems, Branchburg, N.J.) using Roche Diagnostic reagents for enzymatic determinations of serum cholesterol. Commercial calibrator and quality control materials were analyzed with each run to verify assay accuracy and precision. A two-tailed, paired Students t-test was used to determine the statistical significance of changes in serum total cholesterol in treated dogs compared to pretreatment values. A one-way analysis of variance (“ANOVA”) was used to compare each pair of treatment groups to determine the statistical significance of changes in serum total cholesterol.
Beagle dogs also were administered pravastatin to evaluate the monotherapeutic effect of pravastatin on serum total cholesterol.
Male beagle dogs (9-10 kg) obtained from Marshall farms were fed once a day for two hours and given water ad libitum. Prior to initiating treatment, blood samples were drawn from the cephalic vein of each dog to evaluate pretreatment total serum cholesterol levels at the start of the study.
For the dose ranging study, the dogs were assigned to one of five groups based on mean body weights and serum total cholesterol levels. Each group received one of the following dosages: (1) vehicle (empty capsule, afternoon dosing), (2) 3.0 mg/kg/day pravastatin (afternoon dosing), (3) 10 mg/kg/day pravastatin (afternoon dosing), (4) 30 mg/kg/day pravastatin (afternoon dosing), and (5) 10 mg/kg/day pravastatin (morning dosing). One capsule containing pravastatin was administered per os to each dog between 9:00-9:30 a.m. prior to feeding for the 10 mg/kg/day morning dosing group and between 2:30-3:00 p.m. for the afternoon dosing groups. All animals were fed between 9:30-10:00 a.m. and were allowed two hours to eat, at which time any remaining food was removed. […] Animals were dosed daily for four weeks and blood samples were taken at the end of each week after an overnight fast for comparison with pretreatment serum total cholesterol levels.
Following this initial four week dose-ranging study, dogs from the two groups receiving 10 mg/kg/day pravastatin (a.m. and p.m. dosing groups) were randomized into two new treatment groups based on serum total cholesterol levels to initiate the combination treatment study. […] Dosing continued in this manner for an additional four weeks (Weeks 5-8) with blood and 48-hour fecal samples collected at the end of each week for serum lipid measurements and fecal bile acid determinations, respectively.

CC[C@H](C)C(=O)O[C@H]1C[C@H](O)C=C2C=C[C@H](C)[C@H](CC[C@@H](O)C[C@@H](O)CC(=O)O)[C@H]21 [pravastatin, Pravastatin]
% change in serum total cholesterol compared to the pretreatment value of each group (pravastatin 0.25 mg/kg/day, Week 1): (+2) % | SERUM TOTAL CHOLESTEROL (pravastatin 0.25 mg/kg/day, Week 1, mean ± SEM): 157 ± 10 mg/dL | % change in serum total cholesterol compared to the pretreatment value of each group (pravastatin 0.25 mg/kg/day, Week 2): (+3) % | SERUM TOTAL CHOLESTEROL (pravastatin 0.25 mg/kg/day, Week 2, mean ± SEM): 159 ± 12 mg/dL | % change in serum total cholesterol compared to the pretreatment value of each group (pravastatin 0.25 mg/kg/day, Week 3): (0) % | SERUM TOTAL CHOLESTEROL (pravastatin 0.25 mg/kg/day, Week 3, mean ± SEM): 154 ± 13 mg/dL | decrease in serum total cholesterol concentration (pravastatin 0.25 mg/kg/day, one week of treatment): 2% | decrease in serum total cholesterol concentration (pravastatin 0.25 mg/kg/day, three weeks of treatment): 0% | % change in serum total cholesterol compared to the pretreatment value of each group (pravastatin 1.0 mg/kg/day, Week 1): (−1) % | SERUM TOTAL CHOLESTEROL (pravastatin 1.0 mg/kg/day, Week 1, mean ± SEM): 153 ± 11 mg/dL | % change in serum total cholesterol compared to the pretreatment value of each group (pravastatin 1.0 mg/kg/day, Week 2): (−4) % | SERUM TOTAL CHOLESTEROL (pravastatin 1.0 mg/kg/day, Week 2, mean ± SEM): 149 ± 11^2 mg/dL | % change in serum total cholesterol compared to the pretreatment value of each group (pravastatin 1.0 mg/kg/day, Week 3): (−8) % | SERUM TOTAL CHOLESTEROL (pravastatin 1.0 mg/kg/day, Week 3, mean ± SEM): 143 ± 10^2 mg/dL | decrease in serum total cholesterol concentration (pravastatin 1.0 mg/kg/day, one week of treatment): 1% | decrease in serum total cholesterol concentration (pravastatin 1.0 mg/kg/day, three weeks of treatment): 8% | % change in serum total cholesterol compared to the pretreatment value of each group (pravastatin 3.0 mg/kg/day pm dosing, Week 1): (−1) % | TOTAL SERUM CHOLESTEROL (pravastatin 3.0 mg/kg/day pm dosing, Week 1, mean ± SEM): 157 ± 16 mg/dL | % change in serum total cholesterol compared to the pretreatment value of each group (pravastatin 3.0 mg/kg/day pm dosing, Week 2): (−16) % | TOTAL SERUM CHOLESTEROL (pravastatin 3.0 mg/kg/day pm dosing, Week 2, mean ± SEM): 133 ± 11^3 mg/dL | % change in serum total cholesterol compared to the pretreatment value of each group (pravastatin 3.0 mg/kg/day pm dosing, Week 3): (−11) % | TOTAL SERUM CHOLESTEROL (pravastatin 3.0 mg/kg/day pm dosing, Week 3, mean ± SEM): 140 ± 12^3 mg/dL | % change in serum total cholesterol compared to the pretreatment value of each group (pravastatin 3.0 mg/kg/day pm dosing, Week 4): (−16) % | TOTAL SERUM CHOLESTEROL (pravastatin 3.0 mg/kg/day pm dosing, Week 4, mean ± SEM): 132 ± 10^3 mg/dL | lowering of serum total cholesterol (pravastatin 3 mg/kg/day, four week dose ranging study): 16% | % change in serum total cholesterol compared to the pretreatment value of each group (pravastatin 4.0 mg/kg/day, Week 1): (−6) % | SERUM TOTAL CHOLESTEROL (pravastatin 4.0 mg/kg/day, Week 1, mean ± SEM): 148 ± 10^2 mg/dL | % change in serum total cholesterol compared to the pretreatment value of each group (pravastatin 4.0 mg/kg/day, Week 2): (−7) % | SERUM TOTAL CHOLESTEROL (pravastatin 4.0 mg/kg/day, Week 2, mean ± SEM): 146 ± 8 mg/dL | % change in serum total cholesterol compared to the pretreatment value of each group (pravastatin 4.0 mg/kg/day, Week 3): (−11) % | SERUM TOTAL CHOLESTEROL (pravastatin 4.0 mg/kg/day, Week 3, mean ± SEM): 139 ± 9^2 mg/dL | decrease in serum total cholesterol concentration (pravastatin 4.0 mg/kg/day, one week of treatment): 6% | decrease in serum total cholesterol concentration (pravastatin 4.0 mg/kg/day, three weeks of treatment): 11% | decrease in serum total cholesterol (pravastatin 10 mg/kg/day a.m. dosing): 16% | % change in serum total cholesterol compared to the pretreatment value of each group (pravastatin 10.0 mg/kg/day am dosing, Week 1): (+6) % | TOTAL SERUM CHOLESTEROL (pravastatin 10.0 mg/kg/day am dosing, Week 1, mean ± SEM): 164 ± 12 mg/dL | % change in serum total cholesterol compared to the pretreatment value of each group (pravastatin 10.0 mg/kg/day am dosing, Week 2): (−13) % | TOTAL SERUM CHOLESTEROL (pravastatin 10.0 mg/kg/day am dosing, Week 2, mean ± SEM): 135 ± 15^3 mg/dL | % change in serum total cholesterol compared to the pretreatment value of each group (pravastatin 10.0 mg/kg/day am dosing, Week 3): (−15) % | TOTAL SERUM CHOLESTEROL (pravastatin 10.0 mg/kg/day am dosing, Week 3, mean ± SEM): 131 ± 10^3 mg/dL | % change in serum total cholesterol compared to the pretreatment value of each group (pravastatin 10.0 mg/kg/day am dosing, Week 4): (−16) % | TOTAL SERUM CHOLESTEROL (pravastatin 10.0 mg/kg/day am dosing, Week 4, mean ± SEM): 130 ±7 mg/dL and 130 ± 7^3 mg/dL | decrease in serum total cholesterol (pravastatin 10 mg/kg/day p.m. dosing): 21% | % change in serum total cholesterol compared to the pretreatment value of each group (pravastatin 10.0 mg/kg/day pm dosing, Week 1): (−8) % | TOTAL SERUM CHOLESTEROL (pravastatin 10.0 mg/kg/day pm dosing, Week 1, mean ± SEM): 146 ± 10 mg/dL | % change in serum total cholesterol compared to the pretreatment value of each group (pravastatin 10.0 mg/kg/day pm dosing, Week 2): (−19) % | TOTAL SERUM CHOLESTEROL (pravastatin 10.0 mg/kg/day pm dosing, Week 2, mean ± SEM): 129 ± 10^3 mg/dL | % change in serum total cholesterol compared to the pretreatment value of each group (pravastatin 10.0 mg/kg/day pm dosing, Week 3): (−19) %
